# From patent US11345678B2, “Benzopyrazole compound used as RHO kinase inhibitor” (MEDSHINE DISCOVERY INC., priority 2018, dated 2022)
# Legend:
# [1] = target: ROCK2 (Homo sapiens (Human), UniProt O75116); assay: In vitro inhibitory activity against ROCK protein kinase (33P-ATP filter-binding), ROCK2; assay type: biochemical; details: 1 nM ROCK protein kinase, 20 μM Long S6 Kinase substrate peptide
# Description: (§1) 1. In Vitro Evaluation of the Inhibitory Activity Against ROCK Protein Kinase
# (§2) Experimental purpose: to detect the inhibitory IC50 value of the compound against ROCK protein kinase.
# (§3) Assay buffer solution: 20 mM 4-hydroxyethylpiperazine ethanesulfonic acid (pH 7.5), 10 mM magnesium chloride, 1 mM ethylene glycol-bis-(2-aminoethyl)tetraacetic acid, 0.02% polyethylene glycol monododecyl ether, 0.02 mg/mL bovine serum albumin, 0.1 mM sodium vanadate, 2 mM dithiothreitol, 1% DMSO.
# (§4) The freshly prepared buffer solution was added to ROCK protein kinase substrate (Long S6 Kinase substrate peptide), at a concentration of 20 μM, then 1 nM ROCK protein kinase was added thereto and stirred evenly. Echo550 was used to add a series of DMSO dilutions containing the test compound (starting from 10 μM, serially diluted by 3 times), the solution was pre-incubated at room temperature for 20 minutes, then ^33P-ATP (radiation intensity 10 μCi/μL) was added to initiate the reaction, and the reaction was performed at room temperature for two hours. Then the solution was filtered by P81 ion exchange paper (Whatman #3698-915) and washed with 0.75% phosphoric acid. The radiation intensity was determined by Filter-Binding method.
# (§5) The protein kinase inhibitory activity of the compound was expressed as the remaining protein kinase activity relative to the blank substrate (simply DMSO). Prism software package (GraphPad Software, San Diego Calif., USA) was used to calculate IC50 value and the curve.
# [2] = target: ROCK1 (Homo sapiens (Human), UniProt Q13464); assay: In vitro inhibitory activity against ROCK protein kinase (33P-ATP filter-binding), ROCK1; assay type: biochemical; details: 1 nM ROCK protein kinase, 20 μM Long S6 Kinase substrate peptide
# Description: as §1, §2, §3, §4, §5
# Sequence of ROCK1 (Q13464 whole entry): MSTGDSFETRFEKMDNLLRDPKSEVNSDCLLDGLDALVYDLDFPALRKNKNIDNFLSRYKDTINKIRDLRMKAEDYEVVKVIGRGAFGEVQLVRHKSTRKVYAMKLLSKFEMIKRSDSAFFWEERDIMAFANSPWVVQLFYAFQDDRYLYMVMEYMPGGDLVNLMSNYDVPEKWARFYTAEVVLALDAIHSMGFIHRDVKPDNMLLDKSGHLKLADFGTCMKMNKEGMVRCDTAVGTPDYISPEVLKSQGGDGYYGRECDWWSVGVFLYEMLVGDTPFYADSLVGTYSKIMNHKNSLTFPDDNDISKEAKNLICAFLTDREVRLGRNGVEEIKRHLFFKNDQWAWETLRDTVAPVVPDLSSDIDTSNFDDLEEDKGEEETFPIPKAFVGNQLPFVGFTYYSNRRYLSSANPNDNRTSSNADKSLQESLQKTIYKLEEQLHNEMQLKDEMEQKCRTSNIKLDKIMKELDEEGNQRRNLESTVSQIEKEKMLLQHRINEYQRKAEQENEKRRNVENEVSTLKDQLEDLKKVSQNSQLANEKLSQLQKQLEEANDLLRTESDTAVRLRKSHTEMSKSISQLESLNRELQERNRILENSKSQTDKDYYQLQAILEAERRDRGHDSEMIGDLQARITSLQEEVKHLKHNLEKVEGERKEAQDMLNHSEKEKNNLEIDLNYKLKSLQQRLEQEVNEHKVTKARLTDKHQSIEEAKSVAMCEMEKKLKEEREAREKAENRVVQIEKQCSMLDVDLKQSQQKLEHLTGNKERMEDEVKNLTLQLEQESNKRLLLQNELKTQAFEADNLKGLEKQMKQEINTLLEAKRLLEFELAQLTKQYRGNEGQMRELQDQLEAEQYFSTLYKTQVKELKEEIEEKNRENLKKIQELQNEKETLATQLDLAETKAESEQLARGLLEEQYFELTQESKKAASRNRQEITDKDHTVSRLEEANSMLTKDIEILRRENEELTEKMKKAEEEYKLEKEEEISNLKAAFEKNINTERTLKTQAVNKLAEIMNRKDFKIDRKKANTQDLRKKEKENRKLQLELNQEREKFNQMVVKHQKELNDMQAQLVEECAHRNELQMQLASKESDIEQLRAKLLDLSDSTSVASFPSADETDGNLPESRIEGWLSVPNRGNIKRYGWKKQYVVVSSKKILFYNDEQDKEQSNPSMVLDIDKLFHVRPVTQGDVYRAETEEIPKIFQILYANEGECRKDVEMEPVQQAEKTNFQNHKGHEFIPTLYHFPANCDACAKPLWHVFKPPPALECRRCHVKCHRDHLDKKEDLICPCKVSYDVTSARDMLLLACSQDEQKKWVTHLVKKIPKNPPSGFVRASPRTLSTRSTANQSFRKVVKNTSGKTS
# Sequence of ROCK2 (O75116 whole entry): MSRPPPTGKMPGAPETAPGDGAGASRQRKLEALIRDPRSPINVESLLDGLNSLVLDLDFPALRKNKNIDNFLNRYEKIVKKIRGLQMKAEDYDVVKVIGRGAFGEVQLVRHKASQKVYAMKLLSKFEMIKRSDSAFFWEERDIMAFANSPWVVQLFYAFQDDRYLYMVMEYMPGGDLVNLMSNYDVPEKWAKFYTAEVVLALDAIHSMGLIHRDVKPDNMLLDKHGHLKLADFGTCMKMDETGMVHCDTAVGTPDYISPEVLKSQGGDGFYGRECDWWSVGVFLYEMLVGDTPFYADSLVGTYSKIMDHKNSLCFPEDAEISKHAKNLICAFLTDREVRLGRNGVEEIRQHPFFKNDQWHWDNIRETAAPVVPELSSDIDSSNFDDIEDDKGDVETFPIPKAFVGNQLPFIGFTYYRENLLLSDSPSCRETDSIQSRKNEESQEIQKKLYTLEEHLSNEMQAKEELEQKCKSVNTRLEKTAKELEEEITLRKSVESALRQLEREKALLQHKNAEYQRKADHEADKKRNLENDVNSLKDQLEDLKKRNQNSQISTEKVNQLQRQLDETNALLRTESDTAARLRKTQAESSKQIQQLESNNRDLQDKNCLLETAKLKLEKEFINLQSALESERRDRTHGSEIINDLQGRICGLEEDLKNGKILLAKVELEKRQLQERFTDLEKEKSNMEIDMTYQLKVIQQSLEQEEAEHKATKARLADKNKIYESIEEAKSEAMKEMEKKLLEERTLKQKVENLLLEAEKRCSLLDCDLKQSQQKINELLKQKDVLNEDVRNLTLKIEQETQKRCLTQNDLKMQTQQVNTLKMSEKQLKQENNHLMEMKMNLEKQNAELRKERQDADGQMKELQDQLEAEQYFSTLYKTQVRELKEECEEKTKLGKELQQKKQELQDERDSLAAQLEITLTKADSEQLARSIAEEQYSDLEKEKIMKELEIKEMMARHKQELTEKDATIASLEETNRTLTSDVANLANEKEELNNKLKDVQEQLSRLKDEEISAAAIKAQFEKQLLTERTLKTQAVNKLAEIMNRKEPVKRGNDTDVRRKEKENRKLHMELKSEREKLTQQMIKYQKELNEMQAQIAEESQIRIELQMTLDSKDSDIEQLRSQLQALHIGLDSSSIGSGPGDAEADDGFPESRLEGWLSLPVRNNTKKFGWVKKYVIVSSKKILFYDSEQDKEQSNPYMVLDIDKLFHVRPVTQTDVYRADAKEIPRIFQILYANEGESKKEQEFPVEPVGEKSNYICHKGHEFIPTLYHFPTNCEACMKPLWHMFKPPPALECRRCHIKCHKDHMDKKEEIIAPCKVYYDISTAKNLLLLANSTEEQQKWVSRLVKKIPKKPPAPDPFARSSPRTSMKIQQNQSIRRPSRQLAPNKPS
IC50 [1] [nM],IC50 [2] [nM],SMILES
22,336,Cc1cccc(C(CN)NC(=O)c2cc(-c3ccc4[nH]nc(C)c4c3)ccn2)c1 (stereo not drawn) [Compound 67]
11,765,COc1cccc(C(CCO)NC(=O)c2cncc(-c3ccc4[nH]ncc4c3)c2)c1 (stereo not drawn) [Compound 3]
51,4120,COc1cccc(C(CN2CCNCC2)NC(=O)c2cccc(-c3ccc4[nH]nc(F)c4c3)c2)c1 (stereo not drawn) [Compound 55]
3,,COc1cccc(CNC(=O)c2cccc(-c3ccc4[nH]ncc4c3)c2)c1 [Compound 21]
24,,COc1cccc(C(CNC(C)C)NC(=O)c2cc(-c3ccc4[nH]nc(C)c4c3)ccn2)c1 (stereo not drawn) [Compound 70]
12,67,COc1cccc(C(CN)NC(=O)c2cc(-c3ccc4[nH]nc(C)c4c3)ccc2OC(F)F)c1 (stereo not drawn) [Compound 47]
7,29,NCC(NC(=O)c1cccc(-c2ccc3[nH]ncc3c2)c1)c1cccc(F)c1 (stereo not drawn) [Compound 23]
58,1260,COc1cccc(C(CN)NC(=O)c2cc(C#N)cc(-c3ccc4[nH]nc(C)c4c3)c2)c1 (stereo not drawn) [Compound 57]
16,139,O=C(NC(CCO)c1cccc(Cl)c1)c1cccc(-c2ccc3[nH]ncc3c2)c1 (stereo not drawn) [Compound 13]
35,735,O=C(NC(CO)c1cccc(F)c1F)c1cccc(-c2ccc3[nH]ncc3c2)c1 (stereo not drawn) [Compound 19]
4,25,COc1cccc(C(CN)NC(=O)c2cccc(-c3ccc4[nH]ncc4c3)c2)c1 (stereo not drawn) [Compound 9]
5,79,COc1cccc(C(CO)NC(=O)c2ccc(F)c(-c3ccc4[nH]ncc4c3)c2)c1 (stereo not drawn) [Compound 11]
20,1090,COc1cc(C(=O)NC(CN)c2cccc(OC)c2)cc(-c2ccc3[nH]nc(F)c3c2)c1 (stereo not drawn) [Compound 53]
35,,Cc1n[nH]c2ccc(-c3cccc(C(=O)NC(CN)c4cccc(OC5CC5)c4)c3)cc12 (stereo not drawn) [Compound 63]
9,758,COc1cccc(C(CN)NC(=O)c2cccc(-c3cc(OC)c4[nH]ncc4c3)c2)c1 (stereo not drawn) [Compound 71]
21,,NCC(NC(=O)c1cccc(-c2ccc3[nH]nc(F)c3c2)c1)c1cccc(F)c1 (stereo not drawn) [Compound 41]
20,223,COCCC(NC(=O)c1cccc(-c2ccc3[nH]ncc3c2)c1)c1cccc(OC)c1 (stereo not drawn) [Compound 31]
35,304,O=C(NC(CCO)c1ccccc1F)c1cccc(-c2ccc3[nH]ncc3c2)c1 (stereo not drawn) [Compound 20]
4,138,CNCC(NC(=O)c1cccc(-c2ccc3[nH]nc(C)c3c2)c1)c1cccc(OC)c1 (stereo not drawn) [Compound 65]
7,290,COc1cccc(C(CN2CCCC2)NC(=O)c2cccc(-c3ccc4[nH]nc(C)c4c3)c2)c1 (stereo not drawn) [Compound 37]
14,126,O=C(NC(CN1CCCC1)c1cccc(F)c1)c1cccc(-c2ccc3[nH]ncc3c2)c1 (stereo not drawn) [Compound 24]
44,2300,COc1cccc(C(CN2CCNCC2)NC(=O)c2cccc(-c3ccc4[nH]nc(C)c4c3)c2)c1 (stereo not drawn) [Compound 56]
23,343,COc1cccc(C(CN2CCNCC2)NC(=O)c2cccc(-c3ccc4[nH]ncc4c3)c2)c1 (stereo not drawn) [Compound 32]
4,,Cc1n[nH]c2ccc(-c3cccc(C(=O)NC(CN)c4cccc(F)c4)c3)cc12 (stereo not drawn) [Compound 42]
16,94,Cc1n[nH]c2ccc(-c3cccc(C(=O)NC(CO)c4cccc(F)c4)c3)cc12 (stereo not drawn) [Compound 59]

IC50 [1] [nM],IC50 [2] [nM],SMILES
23,,O=C(NC(CO)c1cc(F)cc(F)c1)c1cccc(-c2ccc3[nH]ncc3c2)c1 (stereo not drawn) [Compound 17]
16,,COc1cccc(C(CN)NC(=O)c2cc(-c3ccc4[nH]nc(C)c4c3)cc3c2CNC3)c1 (stereo not drawn) [Compound 33]
6,79,COc1cccc(C(CN(C)C)NC(=O)c2cccc(-c3ccc4[nH]ncc4c3)c2)c1 (stereo not drawn) [Compound 10]
30,407,COc1cccc(C(CO)NC(=O)c2cccc(-c3ccc4[nH]nc(N)c4c3)c2)c1 (stereo not drawn) [Compound 27]
8,,COc1cccc(C(CN)NC(=O)c2cccc(-c3ccc4[nH]nc(C5CC5)c4c3)c2)c1 (stereo not drawn) [Compound 68]
6,52,O=C(NC(CO)c1cccc(F)c1)c1cccc(-c2ccc3[nH]ncc3c2)c1 (stereo not drawn) [Compound 22]
44,215,O=C(NC(CO)c1cccc(F)c1)c1cccc(-c2ccc3[nH]nc(F)c3c2)c1 (stereo not drawn) [Compound 60]
21,1640,COc1cccc(C(CCO)NC(=O)c2ccnc(-c3ccc4[nH]ncc4c3)c2)c1 (stereo not drawn) [Compound 1]
12,257,COc1cccc(C(CO)NC(=O)c2cc(F)cc(-c3ccc4[nH]ncc4c3)c2)c1 (stereo not drawn) [Compound 12]
4,24,COc1cccc(C(CCN)NC(=O)c2cccc(-c3ccc4[nH]ncc4c3)c2)c1 (stereo not drawn) [Compound 7]
14,75,COc1cccc(C(CNC(C)C)NC(=O)c2cccc(-c3ccc4[nH]nc(C)c4c3)c2)c1 (stereo not drawn) [Compound 38]
6,153,Cc1n[nH]c2ccc(-c3cccc(C(=O)NC(CN)c4cccc(Cl)c4)c3)cc12 (stereo not drawn) [Compound 43]
8,103,COc1cccc(C(CN2CCCC2)NC(=O)c2cccc(-c3ccc4[nH]ncc4c3)c2)c1 (stereo not drawn) [Compound 14]
15,429,COc1cccc(C(CN)NC(=O)c2cc(CN3CCCC3)cc(-c3ccc4[nH]nc(C)c4c3)c2)c1 (stereo not drawn) [Compound 39]
7,50,COc1cccc(C(CN)NC(=O)c2cc(-c3ccc4[nH]nc(F)c4c3)ccc2OC)c1 (stereo not drawn) [Compound 51]
6,288,COc1cccc(C(CCO)NC(=O)c2cc(-c3ccc4[nH]ncc4c3)ccn2)c1 (stereo not drawn) [Compound 4]
48,1610,COc1cccc(C(CN)NC(=O)c2cc(CN3CCCC3)cc(-c3ccc4[nH]nc(F)c4c3)c2)c1 (stereo not drawn) [Compound 58]
9,84,COc1cccc(C(CN)NC(=O)c2cc(-c3ccc4[nH]nc(F)c4c3)ccc2OC(F)F)c1 (stereo not drawn) [Compound 48]
8,267,COc1cccc(C2(NC(=O)c3cc(-c4ccc5[nH]nc(C)c5c4)ccn3)CCNC2)c1 (stereo not drawn) [Compound 46]
26,259,O=C(NC(CO)c1cc(F)ccc1F)c1cccc(-c2ccc3[nH]ncc3c2)c1 (stereo not drawn) [Compound 16]
12,,COc1cccc(C(CN)NC(=O)c2cc(-c3ccc4[nH]nc(C)c4c3)ncn2)c1 (stereo not drawn) [Compound 69]
21,180,COc1cccc(C(CN)NC(=O)c2cccc(-c3ccc4[nH]nc(F)c4c3)c2)c1 (stereo not drawn) [Compound 54]
3,43,COc1cccc(C(CN)NC(=O)c2cccc(-c3ccc4[nH]nc(C)c4c3)c2)c1 (stereo not drawn) [Compound 30]
13,43,COc1cccc(C(CN)NC(=O)c2cccc(-c3ccc4[nH]nc(F)c4c3)c2)c1 (stereo not drawn) [Compound 28]
29,,O=C(NC(CO)c1ccc(F)c(F)c1)c1cccc(-c2ccc3[nH]ncc3c2)c1 (stereo not drawn) [Compound 18]
